In patent publication EP0802184B1, “N-Benzyl-2-phenylindoles as estrogenic agents” (Wyeth, priority 1996, dated 1997):

How the values were obtained:
estrogen receptor [1] = molecular target: T1, estrogen receptor (Homo sapiens, UniProt P03372); test: In vitro estrogen receptor binding assay (competition with [3H]-17β-estradiol); parameters: expressed in transfected cells; host or cells: CHO cells (ribosome-free cytosol); settings: relative to 17β-estradiol=100; cytosol of CHO cells overexpressing the estrogen receptor
T1 sequence (P03372 1-595): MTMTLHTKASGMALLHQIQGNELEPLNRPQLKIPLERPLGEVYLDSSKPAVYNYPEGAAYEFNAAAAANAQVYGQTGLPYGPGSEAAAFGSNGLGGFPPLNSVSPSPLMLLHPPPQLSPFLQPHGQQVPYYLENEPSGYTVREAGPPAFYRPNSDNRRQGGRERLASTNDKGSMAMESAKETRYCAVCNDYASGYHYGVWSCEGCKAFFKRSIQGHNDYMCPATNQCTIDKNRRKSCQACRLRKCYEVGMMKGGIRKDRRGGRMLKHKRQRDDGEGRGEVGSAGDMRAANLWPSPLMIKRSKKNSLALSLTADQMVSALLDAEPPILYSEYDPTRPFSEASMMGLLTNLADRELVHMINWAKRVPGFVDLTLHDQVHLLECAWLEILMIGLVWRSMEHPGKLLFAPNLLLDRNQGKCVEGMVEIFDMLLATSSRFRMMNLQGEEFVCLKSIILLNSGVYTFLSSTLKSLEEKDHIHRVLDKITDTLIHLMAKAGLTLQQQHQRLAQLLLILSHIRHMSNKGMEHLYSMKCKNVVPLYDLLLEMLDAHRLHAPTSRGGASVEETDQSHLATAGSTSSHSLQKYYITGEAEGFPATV
Method: CHO cells overexpressing the estrogen receptor were grown in 150 mm^2 dishes in DMEM + 10% dextran coated charcoal, stripped fetal bovine serum. The plates were washed twice with PBS and once with 10mM Tris-HCl, pH 7.4, 1mM EDTA. Cells were harvested by scraping the surface and then the cell suspension was placed on ice. Cells were disrupted with a hand-held motorized tissue grinder using two, 10-second bursts. The crude preparation was centrifuged at 12,000g for 20 minutes followed by a 60 minute spin at 100,000g to produce a ribosome free cytosol. The cytosol was then frozen and stored at -80°C. Protein concentration of the cytosol was estimated using the BCA assay with reference standard protein.
100uG/100uL of the receptor preparation was aliquoted per well. […] The plate was incubated at room temperature for 2.5 h. At the end of this incubation period 150 uL of ice-cold dextran coated charcoal (5% activated charcoal coated with 0.05% 69K dextran) was added to each well and the plate was immediately centrifuged at 99g for 5 minutes at 4°C. 200 uL of the supernatant solution was then removed for scintillation counting. Samples were counted to 2% or 10 minutes, whichever occurs first. […] Also, wells containing radioactivity but no cytosol were processed with charcoal to estimate unremovable DPM of [^3H]
Counts per minute (CPM) of radioactivity were automatically converted to disintegrated per minute (DPM) by the Beckman LS 7500 Scintillation Counter using a set of quenched standards to generate a H# for each sample.
For the generation of IC50 curves, % binding is plotted vs compound. […] For a description of these methods, see Hulme, E.C., ed. 1992. Receptor-Ligand Interactions: A Practical Approach. IRL Press, New York.(see especially chapter 8).

Ishikawa cells = test: Ishikawa Cell Alkaline Phosphatase Assay; type: cell-based, human; settings: 48 h; for % Activation (Compound + 1 nM 17β-estradiol): 10^-6 M compound + 10^-9 M 17β-estradiol; for % Activation: compound alone, percent of response related to 1 nM 17β-estradiol
Method: Cells were treated for 48 h prior to assay. […] Sample population for at each dose was n=8. […] Plates are placed at -80°C for a minimum of 15 minutes. Plates are thawed at 37°C followed by the addition of 150μL of 0.1 M Tris-HCl, pH 9.8, containing 4 mM para-nitrophenylphosphate (pNPP) to each well (final concentration, 3 mM pNPP). Absorbance and slope calculations were made using the […] Application program (Bio-Tek Instruments, Inc., Winooski, VT). […] Various compounds were assayed for estrogenic activity by the alkaline phosphatase method and corresponding ED50 values (95% C.I.) were calculated. The four listed in the following were used as reference standards: A description of such methods is provided by Holinka, […]., Kuramoto, H. and Gurpide, E. (1986) Effects of steroid hormones and antisteroids on alkaline phosphatase activity in human endometrial cancer cells (Ishikawa Line). Cancer Research, 46:2771-2774, and by […]. and by […] simple and sensitive microtiter plate estrogen bioassay based on stimulation alkaline phosphatase in Ishikawa cells; […] Endocrinology, 6:2757-2762.

estrogen receptor [2] = molecular target: T1, estrogen receptor; test: 2X VIT ERE Transfection Assay (Infection Luciferase Assay); type: cell-based; settings: 24 h; for % Activation with 1 nM 17β-estradiol: 1 uM compound + 1 nM 17β-estradiol (test for estrogen antagonism); for % Activation: compound alone (1 uM), compared to 17β-estradiol
Method: Chinese Hamster Ovary cells (CHO) which had been stably transfected with the human estrogen receptor were maintained in DMEM + 10% fetal bovine serum (FBS). 48h prior to treatment the growth medium was replaced with DMEM lacking phenol red + 10% dextran coated charcoal stripped FBS (treatment medium). Cells were plated at a density of 5000 cells/well in 96-well plates containing 200 µL of medium/well.
Reporter DNA (Promega plasmid pGL2 containing two tandem copies of the vitellogenin ERE in front of the minimal thymidine kinase promoter driving the luciferase gene) was combined with the B-galactosidase expression plasmid pCH110 (Pharmacia) and carrier DNA (pTZ18U) in the following ratio: • 10uG of reporter DNA • 5uG of pCH110DNA • 5 uG of pTZ18U • 20 uG of DNA/1 mL of transfection solution
20 uL of this mixture was added to each well of cells and remained on the cells for 16 h. […] Each treatment condition was performed on 8 wells (n=8) which were incubated for 24 h prior to the luciferase assay.
After removing the PBS, 25 uL of Promega lysis buffer was added to each well and allowed to stand at room temperature for 15 min, followed by 15 min at -80°C and 15 min at 37°C. 20 uL of lysate was transferred to an opaque 96 well plate for luciferase activity evaluation and the remaining lysate (5 uL) was used for the B-galactosidase activity evaluation (normalize transfection). The luciferan substrate (Promega) was added in 100 uL aliquots to each well automatically by the luminometer and the light produced (relative light units) was read 10 seconds after addition.
To the remaining 5 uL of lysate 45 uL of PBS was added. Then 50 uL of Promega B-galactosidase 2X assay buffer was added, mixed well and incubated at 37°C for 1 hour. A plate containing a standard curve (0.1 to 1.5 milliunits in triplicate) was set up for each experimental run. The plates were analyzed on a Molecular Devices spectrophotometric plate reader at 410 nm. The optical densities for the unknown were converted to milliunits of activity by mathematical extrapolation from the standard curve.
The luciferase data was generated as relative light units (RLUs) accumulated during a 10 second measurement and automatically transferred to a JMP (SAS Inc) file where background RLUs were subtracted. The B-galactosidase values were automatically imported into the file and these values were divided into the RLUs to normalize the data. The mean and standard deviations were determined from a n=8 for each treatment. […] These techniques are described by Tzukerman, M.T., Esty, A., Santiso-Mere, D., Danielian, P., Parker, M.G., Stein, R.B., Pike, J.W. and McDonnel, D.P. (1994). Human estrogen receptor transactivational capacity was determined by both cellular and promoter context and mediated by two functionally distinct intramolecular regions (see Molecular Endocrinology, 8:21-30).

Compound | Estrogen Receptor Affinity (reported as RBA: 17β-estradiol=100) (estrogen receptor [1]) | % Activation (Compound + 1 nM 17β-estradiol) (Ishikawa cells) [%] | % Activation (Ishikawa cells) [%] | % Activation with 1 nM 17β-estradiol (estrogen receptor [2]) [%] | % Activation (estrogen receptor [2]) [%]
CCCCN(CCCC)C(=O)/C=C/c1ccc(Cn2c(-c3ccc(O)cc3)c(C)c3cc(O)ccc32)cc1 [Example 11, (E)-N, N-Dibutyl-3-{4-[5-hydroxy-2-(4-hydroxy-phenyl)-3-methyl-indol-1-ylmethyl]-phenyl}-acrylamide] | 80 | 11 | 6 | 12 | 8
Cc1c(-c2ccc(O)cc2)n(Cc2ccc(/C=C/C(=O)N(C)C)cc2)c2ccc(O)cc12 [Example 10, (E)-N, N-Dimethyl-3-{4-[5-hydroxy-2-(4-hydroxy-phenyl)-3-methyl-indol-1-ylmethyl]-phenyl}-acrylamide] | 20 | 19 | 6 | 2 | 1
Cc1c(-c2ccc(O)cc2)n(Cc2ccc(C#CCN3CCCCC3)cc2)c2ccc(O)cc12 [Example 22, 2-(4-Hydroxy-phenyl)-3-methyl-1-[4-(3-piperidin-1-yl-prop-1-ynyl)-benzyl]-1H-indol-5-ol] | 23 | 23 | 27 | 19 | 17
